Source: article PMC5640650, “NatD promotes lung cancer progression by preventing histone H4 serine phosphorylation to activate Slug expression” (Nature Communications, 2017)

Experiments:
Format in all cases: cell-based, human
[1] = test system: NatD; assay: Quantitative real-time PCR / western blot of NatD knockdown; conditions: H1299 cells; for NatD mRNA, remaining relative to scrambled control: stable lentiviral shRNA, qPCR normalized to GAPDH, three independent experiments; for NatD protein level: western blot, vs Scr
Source text: (§1) Fig. 2 NatD is required for lung cancer cell migration and invasion in vitro. a Quantitative real-time PCR analysis of NatD mRNA levels normalized to GAPDH in scrambled control cells (Scr) and NatD-KD1 and NatD-KD2 cells. Results are shown as mean ± s.d. from three independent experiments. Two-tailed Student’s t-test was used. **P < 0.01 compared to Scr control. b Western blot analysis of NatD and Nt-ac-H4 protein levels in scrambled, NatD-KD1, and NatD-KD2 cells. GAPDH and histone H4 served as loading controls. Blots are representative of three independent experiments. c Representative images from wound healing assay of scrambled, NatD-KD1, and NatD-KD2 cells from three independent experiments (left panels). Wound healing assay results are quantified in the histogram (right panel). Results are shown as mean ± s.d. from three independent experiments. Two-tailed Student’s t-test was used. **P < 0.01 compared to Scr control. d Representative images of the migration of scrambled, NatD-KD1, and NatD-KD2 cells in a time-lapse cell tracker migration assay from three independent experiments. Representative images of the migration (e) and invasion (f) of scramble, NatD-KD1, and NatD-KD2 cells with transwell assay from three independent experiments (top panel). Cell counts for the corresponding assays of at least four random microscope fields (×100 magnification). Cell migration and invasion are expressed as a percentage of control (bottom panel). Results are shown as mean ± s.d. from three independent experiments. Two-tailed Student’s t-test was used. **P < 0.01 compared to Scr control
The small interfering RNA (siRNA) target sequences for RNA interference of NatD were inserted into the XhoI/HpaI sites in the pLL3.7 lentiviral vector according to the manufacturer’s recommendations (American Type Culture Collection, USA). The oligonucleotides were:
Total RNA from tissue samples and cultured cells was extracted using TRIzol reagent (Invitrogen). cDNAs were synthesized with a HiScript 1st Strand cDNA Synthesis Kit (Vazyme Biotech, China). Quantitative RT-PCR was performed using a FastStart Universal SYBR Green Master (Roche) according to the manufacturer’s instructions in a Rotor-Gene 6000 (Corbett Research) in a final volume of 20 μl. Cycling conditions were 94 °C for 15 s, 60 °C for 30 s, and 72 °C for 30 s. Each reaction was performed in triplicate. The primer sequences for RT-PCR are listed in Supplementary Table 2 and Table 3.

[2] = test system: histone H4; assay: Western blot of histone H4 modifications, H1299 cells; conditions: total lysates, vs Scr
Source text: as §1
Fig. 6 Nt-acetylation of histone H4 antagonizes phosphorylation of histone H4 serine 1 to regulate Slug expression. a Western blot analysis of indicated histone H4 modifications in Scr and NatD-KD H1299 cells. Histone H4 served as a loading control. b ChIP analysis of the enrichment of indicated histone H4 modifications on the Slug promoter in Scr and NatD-KD H1299 cells. IgG served as a negative control. Results are shown as mean ± s.d. from three independent experiments; two-tailed Student’s t-test, *P < 0.05, **P < 0.01 compared with the Scr control. c ChIP analysis of the enrichment of H3K4me3 and H3K27me3 on the Slug promoter in Scr and NatD-KD H1299 cells. IgG served as a negative control. Results are shown as mean ± s.d. from three independent experiments; two-tailed Student’s t-test, **P < 0.01 compared with the Scr control. d Western blot analysis of indicated proteins from H1299 cells overexpressing NatDΔ or wild-type NatD. Histone H4 served as a loading control. e ChIP analysis of the enrichment of Nt-ac-H4 and H4S1ph on Slug promoter in H1299 cells overexpressing NatDΔ or wild-type NatD. IgG served as a negative control. Results are shown as mean ± s.d. from three independent experiments; two-tailed Student’s t-test, *P < 0.05, **P < 0.01 compared with the wild-type control
Cellular proteins were extracted by RIPA lysis buffer at high salt concentration (420 mM NaCl), and western blot analysis was performed in accordance with standard protocols. Scans of enhanced chemiluminescence (ECL) films showing uncropped blots are presented in Supplementary Fig. 10. […]

[3] = test system: H1299 cells; assay: Cell growth (CCK-8), H1299 cells; conditions: vs Scr
Description: The in vitro viability of H1299 cells was assessed using the Cell Counting Kit-8 (CCK-8, Dojindo, Japan) according to the manufacturer’s protocol. Flow cytometric analysis of apoptosis was assessed by Annexin V and PI staining using the Annexin V-APC Apoptosis Detection Kit (KeyGEN BioTECH, China) according to the manufacturer’s guide. For cell cycle analysis, cells were harvested and fixed at 4 °C overnight with 70% ethanol. Cells were washed twice with PBS, and their DNA was stained using a Cell Cycle Detection Kit (KeyGEN BioTECH, China). The samples were analyzed by flow cytometry (Becton Dickinson, NJ, USA), and results were analyzed with FlowJo software according to the manufacturer’s instructions. For the wound healing assay, cells were plated to confluence in a 6-well plate, and the cell monolayer was scratched using a pipette tip. Representative photos were taken using a digital camera mounted on an inverted microscope (Olympus) at indicated times. Live cell imaging was performed using the HoloMonitor M4 time-lapse cytometer (Phase Holographic Imaging, Sweden). […]
Supplementary Figure 1. […] (b and c) Representative images from three independent experiments of apoptosis (b) and cell cycle analysis (c) of Scr and NatD-KD H1299 cells analyzed by flow cytometry. […]

[4] = test system: H1299 cells; assay: Wound healing assay, H1299 cells; conditions: vs Scr
Source text: Fig. 2 NatD is required for lung cancer cell migration and invasion in vitro. a Quantitative real-time PCR analysis of NatD mRNA levels normalized to GAPDH in scrambled control cells (Scr) and NatD-KD1 and NatD-KD2 cells. Results are shown as mean ± s.d. from three independent experiments. Two-tailed Student’s t-test was used. **P < 0.01 compared to Scr control. b Western blot analysis of NatD and Nt-ac-H4 protein levels in scrambled, NatD-KD1, and NatD-KD2 cells. GAPDH and histone H4 served as loading controls. Blots are representative of three independent experiments. c Representative images from wound healing assay of scrambled, NatD-KD1, and NatD-KD2 cells from three independent experiments (left panels). Wound healing assay results are quantified in the histogram (right panel). […] Cell migration and invasion are expressed as a percentage of control (bottom panel). […]
The in vitro viability of H1299 cells was assessed using the Cell Counting Kit-8 (CCK-8, Dojindo, Japan) according to the manufacturer’s protocol. Flow cytometric analysis of apoptosis was assessed by Annexin V and PI staining using the Annexin V-APC Apoptosis Detection Kit (KeyGEN BioTECH, China) according to the manufacturer’s guide. […] The samples were analyzed by flow cytometry (Becton Dickinson, NJ, USA), and results were analyzed with FlowJo software according to the manufacturer’s instructions. […]

Substance | NatD knockdown quality ([1]; KD2 vs KD1) | NatD mRNA, remaining relative to scrambled control [1] | NatD protein level [1] | level of H4R3me2a [2] | level of H4R3me2s [2] | level of H4S1ph [2] | level of Nt-ac-H4 [2] | levels of H4K5ac, H4K8ac, or H4K12ac [2] | level of Nt-ac-H4 ([2]; listed as NatD knockdown) | cell growth rate [3] | migration in wound healing assay [4]
NatD-KD2: Human NatD shRNA KD2: 5′-GGTTGAATGTCTCCATTGA-3′, lentiviral (shRNA lentiviral) | somewhat better knockdown | 30% | decreased | slightly increased | slightly decreased | significantly increased | significantly reduced | No significant change | greatly decreased | grew at a similar rate | migrated significantly more slowly
NatD-KD1: Human NatD shRNA KD1: 5′-GATGAAGAAGGTTATGTTA-3′, lentiviral (shRNA, lentiviral) | – | 30% | decreased | – | – | – | significantly reduced | – | – | grew at a similar rate | migrated significantly more slowly
